According to US20080312298A1, “Methods for Identification of Modulators of Carm1 Methyl Transferase Activity” (priority 2007, published 2008):

Target: T1, CARM1 (Homo sapiens, UniProt Q86X55)
T1 construct: made in house; host or cells: E. coli
T1 sequence (Q86X55 1-608): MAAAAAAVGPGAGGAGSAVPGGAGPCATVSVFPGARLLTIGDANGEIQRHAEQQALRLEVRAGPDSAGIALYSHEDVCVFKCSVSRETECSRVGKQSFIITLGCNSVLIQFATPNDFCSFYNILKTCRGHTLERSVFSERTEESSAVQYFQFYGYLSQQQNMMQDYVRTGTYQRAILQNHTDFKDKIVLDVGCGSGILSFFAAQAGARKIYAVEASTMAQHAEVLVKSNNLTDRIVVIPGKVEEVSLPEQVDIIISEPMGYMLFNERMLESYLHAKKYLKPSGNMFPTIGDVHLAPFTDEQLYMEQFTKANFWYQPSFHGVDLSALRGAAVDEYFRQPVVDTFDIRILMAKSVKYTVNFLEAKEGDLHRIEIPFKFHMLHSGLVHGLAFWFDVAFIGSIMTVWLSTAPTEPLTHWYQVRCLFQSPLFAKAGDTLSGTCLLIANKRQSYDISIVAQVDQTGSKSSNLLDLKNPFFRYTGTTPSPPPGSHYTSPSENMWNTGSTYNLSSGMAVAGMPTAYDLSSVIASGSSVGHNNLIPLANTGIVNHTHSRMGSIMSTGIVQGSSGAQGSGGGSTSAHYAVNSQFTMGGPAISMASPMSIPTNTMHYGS
Assay: CARM1 biochemical assay (scintillation proximity assay, SPA)
From the text: CARM1 biochemical Assay. (e.g. for Determining IC50 Values).
A fusion protein of CARM1 to MBP (Maltose Binding protein), expressed and purified from E. coli, was used to methylate peptides derived from either the N-terminus of histone H3 (acetyl-STGGKAPRKQLATKAARK-biotin) or from PABP1 (acetyl-[…]-biotin). The H3 peptide has two residues R17 and R26 that have been reported to be methylated by CARM1 (Brandon et al., Biochemistry, 2001, 40(19):5747-5756). The PABP1 peptide also contains two arginine residues, R455 and R460, similarly methylated by CARM1 (Lee and Bedford, EMBO Rep. 2002, 3(3):268-73). The methylation reaction was conducted in the presence of tritiated S-Adenosyl-L-Methionine (3H-SAM), 1 μg MBP-CARM1, 250 nM peptide substrate, and assay buffer (50 mM Tris pH 8.0, 0.03% BSA, 3 mM DTT). The reaction was allowed to proceed at room temperature for 75 minutes before being stopped by Stop buffer (25 mM Tris pH 7.4, 100 mM EDTA, 1% Tween 20) and Streptavidin-coated SPA beads (2 mg/ml) (GE Healthcare). The beads were allowed to settle overnight before the signal was counted in a TOPCOUNT. The final SAM concentration in the reaction and the ratio of tritiated to unlabelled SAM was adjusted to give a good signal/noise. […]

mode of inhibition with respect to SAM: SAM competitive
IC50 (at saturating SAM concentrations): low micromolar
SMILES: CNC[C@H](O)c1cccc(O)c1
